From ChEMBL document CHEMBL5036336, “Structure-Guided Optimization Provides a Series of TTK Protein Inhibitors with Potent Antitumor Activity” (J Med Chem, 2021) come the findings set out here.

≈ marks a conversion by molar mass, not a printed value.

Data set [1] deals with T1, Dual specificity protein kinase TTK (Homo sapiens, UniProt P33981).
T1 sequence (P33981 whole entry): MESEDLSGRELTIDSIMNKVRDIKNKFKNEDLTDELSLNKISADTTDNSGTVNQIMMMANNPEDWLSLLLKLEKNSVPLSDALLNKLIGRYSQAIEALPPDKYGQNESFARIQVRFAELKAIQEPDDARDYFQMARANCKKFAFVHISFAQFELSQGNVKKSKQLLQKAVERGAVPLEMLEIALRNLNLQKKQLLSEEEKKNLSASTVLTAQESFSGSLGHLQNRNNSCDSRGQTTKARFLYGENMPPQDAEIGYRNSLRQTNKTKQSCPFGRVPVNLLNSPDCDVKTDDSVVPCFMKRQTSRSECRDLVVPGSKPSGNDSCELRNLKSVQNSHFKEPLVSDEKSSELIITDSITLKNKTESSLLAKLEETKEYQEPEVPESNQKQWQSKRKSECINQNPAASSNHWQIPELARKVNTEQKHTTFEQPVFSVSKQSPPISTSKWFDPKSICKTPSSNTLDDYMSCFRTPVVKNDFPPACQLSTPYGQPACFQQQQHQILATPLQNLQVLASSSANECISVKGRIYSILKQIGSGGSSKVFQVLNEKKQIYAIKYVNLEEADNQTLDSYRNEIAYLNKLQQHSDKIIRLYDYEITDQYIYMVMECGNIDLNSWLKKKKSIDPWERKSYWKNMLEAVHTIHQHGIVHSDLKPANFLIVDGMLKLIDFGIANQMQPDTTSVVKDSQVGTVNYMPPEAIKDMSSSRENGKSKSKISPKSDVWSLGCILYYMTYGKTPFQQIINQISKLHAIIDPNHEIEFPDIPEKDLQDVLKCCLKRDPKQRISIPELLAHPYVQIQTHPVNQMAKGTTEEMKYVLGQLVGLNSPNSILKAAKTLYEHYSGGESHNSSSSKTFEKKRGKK
Kind of data set: Displacement of kinase tracer 236 from TTK (unknown origin) by LanthaScreen Eu kinase binding assay. On the technique in general: TR-FRET usually uses a lanthanide donor and a delayed reading to cut background.

The test system of the next data set is CAL-51. Kind of data set: Antiproliferative activity against human CAL-51 cells assessed as inhibition of cell proliferation measured after 3 days by Cell Titer-Glo luminescence based assay. The note with it: CAL-51, 72 h. It is filed as functional. (In ATP-based viability assays light output follows the ATP content of the culture.)
A short description of data set [2]: Kinetic solubility of compound in PBS at pH 7.4 at 200 uM incubated for 24 hrs by UPLC/MS analysis. It is filed as physicochemical. As to conditions: read-out: Kinetic_solubility.
Data set [3] in a line: Clearance in rat at 2 mg/kg, iv. The note with it: in vivo. It is filed as ADME, organism-based.
The target of a further data set is Cytochrome P450 3A4 (Homo sapiens, UniProt P08684). Kind of data set: Inhibition of CYP3A4 in human liver microsomes using […] as substrate incubated for 5 mins in presence of NADPH by LC-MS/MS analysis. It is filed as ADME.
Chain of Cytochrome P450 3A4 (P08684 whole entry): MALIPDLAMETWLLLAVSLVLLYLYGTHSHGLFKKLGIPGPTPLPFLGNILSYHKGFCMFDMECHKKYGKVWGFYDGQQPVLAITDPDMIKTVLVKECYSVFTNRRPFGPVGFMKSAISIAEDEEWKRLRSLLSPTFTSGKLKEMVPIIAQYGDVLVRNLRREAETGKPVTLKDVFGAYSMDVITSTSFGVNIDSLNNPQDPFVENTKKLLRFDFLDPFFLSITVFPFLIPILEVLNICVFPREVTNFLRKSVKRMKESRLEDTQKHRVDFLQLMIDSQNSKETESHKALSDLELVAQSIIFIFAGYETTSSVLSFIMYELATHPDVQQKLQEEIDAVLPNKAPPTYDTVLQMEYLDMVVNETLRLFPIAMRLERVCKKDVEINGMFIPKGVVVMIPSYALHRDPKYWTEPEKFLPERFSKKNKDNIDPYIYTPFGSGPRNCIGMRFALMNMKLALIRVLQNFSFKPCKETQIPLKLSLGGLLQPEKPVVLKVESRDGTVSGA

By IC50 is commonly meant the concentration at which inhibition is half-maximal. For orientation: clearance means the volume of plasma or blood freed of the substance per unit of time. As to `CCc1cccc(CC)c1N1CCn2cc(-c3nc(Nc4ccc(N5CCN(CC(=O)N(C)C)CC5)cc4OC)nc4[nH]ccc34)cc2C1=O`, the IC50 turned out to be 9 nM in data set [1] and 11 nM in the data set with CAL-51. Besides, the solubility kinetic at 24 h, 200 µM in data set [2] amounted to 1.4 µM (≈ 0.946 µg/mL). Also, the clearance in data set [3] came out at 23 mL/min/kg.

For `CCc1cccc(CC)c1NC(=O)c1ccn(-c2nc(Nc3ccc(N4CCC(O)(CN5CCN(C)CC5)CC4)cc3OC)nc3[nH]ccc23)c1`, the IC50 was 1 nM in data set [1], 4 nM in the data set with CAL-51 and 1200 nM at Cytochrome P450 3A4. Moreover, in data set [2], the solubility kinetic at 24 h, 200 µM came to 37 µM (≈ 25.6 µg/mL).

For `CCc1cccc(CC)c1N1CCn2cc(-c3nc(Nc4ccc(N5CCC(C(=O)N(C)CCN(C)C)CC5)cc4OC)nc4[nH]ccc34)cc2C1=O`, the half-maximal inhibitory concentration (IC50) worked out at 5.3 nM in data set [1], 7 nM in the data set on CAL-51 and 3900 nM on Cytochrome P450 3A4. Besides, the solubility kinetic at 24 h, 200 µM in data set [2] stood at 125 µM (≈ 89.7 µg/mL). Further, the clearance in data set [3] is 27 mL/min/kg.

Regarding `COc1cc(N2CCN(C3COC3)CC2)ccc1Nc1nc(O[C@H]2CCOC(C)(C)C2)c2cc[nH]c2n1`, on Cytochrome P450 3A4, the IC50 was over 5000 nM.

For `CCc1cccc(CC)c1NC(=O)c1ccn(-c2nc(Nc3ccc(N4CCC(O)(C(=O)N5CCN(C)CC5)CC4)cc3OC)nc3[nH]ccc23)c1`, the IC50 in data set [1] amounted to 2 nM; in the data set with CAL-51 it was 10 nM; on Cytochrome P450 3A4, 1900 nM. Moreover, the solubility kinetic at 24 h, 200 µM in data set [2] is 1 µM (≈ 0.706 µg/mL).

`CCc1cccc(CC)c1NC(=O)c1cc(-c2nc(Nc3ccc(N4CCC(C(=O)N5CCN(C)CC5)CC4)cc3OC)nc3[nH]ccc23)n(C)n1`: the IC50 in data set [1] is 4 nM; in the data set with CAL-51, 17 nM; at Cytochrome P450 3A4 it was over 5000 nM. Also, the solubility kinetic at 24 h, 200 µM in data set [2] was 2 µM (≈ 1.41 µg/mL). The clearance in data set [3] is 19 mL/min/kg.

On to `CCc1cccc(CC)c1NC(=O)c1cc(-c2nc(Nc3ccc(N4CCC(N5CCN(C)CC5)CC4)cc3OC)nc3[nH]ccc23)n(C)n1`, for which the concentration for half-maximal inhibition (IC50) is 6 nM in data set [1], 17 nM in the data set on CAL-51 and over 5000 nM at Cytochrome P450 3A4. For the same compound, the solubility kinetic at 24 h, 200 µM in data set [2] amounted to 18 µM (≈ 12.2 µg/mL). Moreover, the clearance in data set [3] was 15 mL/min/kg.

Consider `CCc1cccc(CC)c1N1CCn2cc(-c3nc(Nc4ccc(N5CCC(N6CCN(C)CC6)CC5)cc4OC)nc4[nH]ccc34)cc2C1=O`, for which the IC50 is 4 nM in data set [1], 9 nM in the data set with CAL-51 and over 5000 nM at Cytochrome P450 3A4. Also, in data set [2], the solubility kinetic at 24 h, 200 µM was 6 µM (≈ 4.13 µg/mL). Besides, in data set [3], the clearance is 52 mL/min/kg.

As to `CCc1cccc(CC)c1NC(=O)c1cc(-c2nc(Nc3ccc(N4CCC(O)(C(=O)N5CCN(C)CC5)CC4)cc3OC)nc3[nH]ccc23)n(C)n1`, the IC50 is 3 nM in data set [1], 20 nM in the data set on CAL-51 and over 5000 nM at Cytochrome P450 3A4. Besides, in data set [2], the solubility kinetic at 24 h, 200 µM came out at 5 µM (≈ 3.6 µg/mL). The same compound returned a clearance in data set [3] of 31 mL/min/kg.

As to `CCc1cccc(CC)c1NC(=O)c1ccn(-c2nc(Nc3ccc(N4CCN(CC(=O)N(C)C)CC4)cc3OC)nc3[nH]ccc23)c1`, the IC50 in data set [1] amounted to 1 nM; in the data set with CAL-51, 10 nM. In data set [2], the solubility kinetic at 24 h, 200 µM was found to be 0.5 µM (≈ 0.325 µg/mL).

With `CCc1cccc(CC)c1N1CCn2cc(-c3nc(Nc4ccc(N5CCC(C(=O)N6CCN(C)CC6)CC5)cc4OC)nc4[nH]ccc34)cc2C1=O`, the half-inhibitory concentration (IC50) was 5.6 nM in data set [1], 5 nM in the data set with CAL-51 and over 5000 nM on Cytochrome P450 3A4. Further, the solubility kinetic at 24 h, 200 µM in data set [2] turned out to be 0.8 µM (≈ 0.573 µg/mL). In addition, the clearance in data set [3] is 1.7 mL/min/kg.

In the case of `CCc1cccc(CC)c1N1CCn2cc(-c3nc(Nc4ccc(N5CCC(O)(C(=O)N6CCN(C)CC6)CC5)cc4OC)nc4[nH]ccc34)cc2C1=O`, the half-maximal inhibitory concentration (IC50) in data set [1] is 7.5 nM; in the data set on CAL-51, 12 nM; on Cytochrome P450 3A4, over 5000 nM. The solubility kinetic at 24 h, 200 µM in data set [2] worked out at 2 µM (≈ 1.46 µg/mL). The compound further had a clearance in data set [3] of 20 mL/min/kg.

For the compound `CNC(=O)c1ccc(Nc2nc(OC3CCCC3)c3c(-c4ccc5nc(C)oc5c4)c[nH]c3n2)c(OC)c1`, at Cytochrome P450 3A4, the IC50 worked out at 280 nM.

Turning to `CCc1cccc(CC)c1NC(=O)c1cc(-c2nc(Nc3ccc(N4CCN(CC(=O)N(C)C)CC4)cc3OC)nc3[nH]ccc23)n(C)n1`, the values for the IC50 (in data set [1]; with CAL-51) were 3 nM and 22 nM, respectively. The solubility kinetic at 24 h, 200 µM in data set [2] was 3 µM (≈ 1.99 µg/mL). The compound also came in with a clearance in data set [3] of 20 mL/min/kg.

`CCc1cccc(CC)c1NC(=O)c1ccn(-c2nc(Nc3ccc(N4CCC(C(=O)N5CCN(C)CC5)CC4)cc3OC)nc3[nH]ccc23)c1`: the results for the half-maximal inhibitory concentration (IC50) (in data set [1]; in the data set with CAL-51; at Cytochrome P450 3A4) were 2 nM, 10 nM and 3100 nM, respectively. The compound also gave a clearance in data set [3] of 22 mL/min/kg.

On to `CCc1cccc(CC)c1N1CCn2cc(-c3nc(Nc4ccc(N5CCC(O)(CN6CCN(C)CC6)CC5)cc4OC)nc4[nH]ccc34)cc2C1=O`, for which the half-inhibitory concentration (IC50) in data set [1] was 2.8 nM; with CAL-51, 8 nM; at Cytochrome P450 3A4, over 5000 nM. Besides, the solubility kinetic at 24 h, 200 µM in data set [2] stood at 150 µM (≈ 108 µg/mL). For the same compound, the clearance in data set [3] was determined as 15 mL/min/kg.

Consider `CCc1cccc(CC)c1NC(=O)c1cc(-c2nc(Nc3ccc(N4CCC(O)(CN5CCN(C)CC5)CC4)cc3OC)nc3[nH]ccc23)n(C)n1`, for which the IC50 in data set [1] is 2 nM; in the data set on CAL-51 it was 19 nM; at Cytochrome P450 3A4, over 5000 nM. Further, the solubility kinetic at 24 h, 200 µM in data set [2] came out at 162 µM (≈ 115 µg/mL). Also, the clearance in data set [3] is 56 mL/min/kg.

Take `CCc1cccc(CC)c1NC(=O)c1ccn(-c2nc(Nc3ccc(N4CCC(N5CCN(C)CC5)CC4)cc3OC)nc3[nH]ccc23)c1`: the 50% inhibitory concentration (IC50) in data set [1] was found to be 2 nM; with CAL-51 it was 6 nM; on Cytochrome P450 3A4, 2000 nM. Further, in data set [2], the solubility kinetic at 24 h, 200 µM was found to be 53 µM (≈ 35.1 µg/mL). The compound further gave a clearance in data set [3] of 68 mL/min/kg.
